Reference: US11339419B2, “Scavenger protein(s) for improved preservation of analyte detection sensor(s) and method(s) of use thereof” (Siemens Healthcare Diagnostics Inc., priority 2017, dated 2022)
Where “and” joins values, the source holds several entries; their conditions need not be identical. Equal entries are not always repeated.

Tested on: sarcosine oxidase (BBI Solutions)
Experiment: BBI Solutions Sarcosine Oxidase Enzyme Absorbance with BSA and MIT
Type: biochemical
Details: for Sarcosine Oxidase Enzyme Absorbance, MEAN of 7-11 / Sarcosine Oxidase Enzyme Absorbance, replicates 7-11 / Sarcosine Oxidase Enzyme Absorbance, MEAN of 1-5 / Sarcosine Oxidase Enzyme Absorbance, solutions 1-5: 37° C.
[1] = Day 0, 5 mg/mL BSA only, no MIT (50 ppm MIT row)
[2] = Day 0, 5 mg/mL BSA only, no MIT (100 ppm MIT row)
[3] = Day 0, 25 mg/mL BSA only, no MIT (50 ppm MIT row)
[4] = Day 0, 25 mg/mL BSA only, no MIT (100 ppm MIT row)
[5] = Day 0, 50 mg/mL BSA only, no MIT (50 ppm MIT row)
[6] = Day 0, 50 ppm MIT, 25 mg/mL BSA
[7] = Day 0, 50 ppm MIT, 50 mg/mL BSA
[8] = Day 0, 100 ppm MIT, 5 mg/mL BSA
[9] = Day 0, 100 ppm MIT, 25 mg/mL BSA
[10] = Day 0, 100 ppm MIT, 50 mg/mL BSA
[11] = Day 4, 50 ppm MIT, 25 mg/mL BSA
[12] = Day 4, 50 ppm MIT, 50 mg/mL BSA
[13] = Day 4, 100 ppm MIT, 5 mg/mL BSA
[14] = Day 4, 100 ppm MIT, 25 mg/mL BSA
[15] = Day 4, 100 ppm MIT, 50 mg/mL BSA
[16] = Day 14, 50 ppm MIT, 5 mg/mL BSA
[17] = Day 14, 50 ppm MIT, 25 mg/mL BSA
[18] = Day 14, 50 ppm MIT, 50 mg/mL BSA
[19] = Day 14, 100 ppm MIT, 5 mg/mL BSA
[20] = Day 14, 100 ppm MIT, 25 mg/mL BSA
[21] = Day 14, 100 ppm MIT, 50 mg/mL BSA

Method: Tables 1-4 depict aqueous solutions comprising varying concentrations of BSA (at concentrations of 0 mg/mL, 5 mg/mL, 25 mg/mL, and 50 mg/mL), varying concentrations of MIT (at concentrations of 50 parts per million and 100 parts per million) or Proclin™ 300 (at concentrations of 0.7% and 1.4%) biocides over a particular time period (measurements were taken at days 0, 4, and 14 after exposure of the enzyme(s) to the aqueous solutions) and the associated enzyme absorbance measurements for sarcosine oxidase (commercially offered for sale by BBI Solutions and Toyobo). Absorbance measurements of the sarcosine oxidase enzyme(s) were taken via spectrophotometer for each aqueous solution (represented as columns 1-5 in Tables 1-4—column 6 is a blank), the absorbance being directly proportional to the enzyme activity being measured-which for Tables 1-4 is sarcosine oxidase enzyme activity. Accordingly, the higher the absorbance measurement, the higher the enzyme activity of sarcosine oxidase. Columns 7-11 represent five replicate readings in which the aqueous solution only contains BSA (i.e., there is no biocide(s) present in the aqueous solution). In addition, the mean values, standard deviations, and coefficients of variation are also presented for the enzyme activity/absorbance of each aqueous solution. All measurements were taken at 37° C.
As depicted below in Table 1, sarcosine oxidase (commercially offered for sale by BBI Solutions) enzyme activity is measured against various concentrations of MIT (biocide) and BSA (scavenger protein) over a period of 14 days (with absorbance measurements taken at 0, 4, and 14 days) for five different aqueous solutions (represented as columns 1-5—column 6 is a blank).

Sarcosine Oxidase Enzyme Absorbance, MEAN of 7-11 [1]: 1.39 | Sarcosine Oxidase Enzyme Absorbance, replicates 7-11 [1]: 1.428 | Sarcosine Oxidase Enzyme Absorbance, MEAN of 7-11 [2]: 1.38 | Sarcosine Oxidase Enzyme Absorbance, replicates 7-11 [2]: 1.439 and 1.414 and 1.437 and 1.422 | Sarcosine Oxidase Enzyme Absorbance, MEAN of 7-11 [3]: 1.37 | Sarcosine Oxidase Enzyme Absorbance, replicates 7-11 [3]: 1.434 | Sarcosine Oxidase Enzyme Absorbance, MEAN of 7-11 [4]: 1.39 | Sarcosine Oxidase Enzyme Absorbance, replicates 7-11 [4]: 1.43 and 1.428 and 1.409 and 1.458 | Sarcosine Oxidase Enzyme Absorbance, MEAN of 7-11 [5]: 1.41 | Sarcosine Oxidase Enzyme Absorbance, replicates 7-11 [5]: 1.454 | Sarcosine Oxidase Enzyme Absorbance, MEAN of 7-11 (Day 0, 50 mg/mL BSA only, no MIT (100 ppm MIT row)): 1.35 | % Bias (Day 0, 50 ppm MIT vs no MIT, 5 mg/mL BSA): 2.3% | % Bias (Day 0, 50 ppm MIT vs no MIT, 25 mg/mL BSA): −0.5% | % Bias (Day 0, 50 ppm MIT vs no MIT, 50 mg/mL BSA): −0.1% | Sarcosine Oxidase Enzyme Absorbance, MEAN of 1-5 (Day 0, 50 ppm MIT, 5 mg/mL BSA): 1.42 | Sarcosine Oxidase Enzyme Absorbance, MEAN of 1-5 [6]: 1.37 | Sarcosine Oxidase Enzyme Absorbance, MEAN of 1-5 [7]: 1.41 | % Bias (Day 0, 100 ppm MIT vs no MIT, 5 mg/mL BSA): −0.3% | % Bias (Day 0, 100 ppm MIT vs no MIT, 25 mg/mL BSA): 2.0% | % Bias (Day 0, 100 ppm MIT vs no MIT, 50 mg/mL BSA): 1.9% | Sarcosine Oxidase Enzyme Absorbance, MEAN of 1-5 [8]: 1.38 | Sarcosine Oxidase Enzyme Absorbance, MEAN of 1-5 [9]: 1.41 | Sarcosine Oxidase Enzyme Absorbance, MEAN of 1-5 [10]: 1.38 | Sarcosine Oxidase Enzyme Absorbance, MEAN of 7-11 (Day 4, 5 mg/mL BSA only, no MIT (50 ppm MIT row)): 1.41 | Sarcosine Oxidase Enzyme Absorbance, MEAN of 7-11 (Day 4, 5 mg/mL BSA only, no MIT (100 ppm MIT row)): 1.36 | Sarcosine Oxidase Enzyme Absorbance, MEAN of 7-11 (Day 4, 25 mg/mL BSA only, no MIT (50 ppm MIT row)): 1.37 | Sarcosine Oxidase Enzyme Absorbance, MEAN of 7-11 (Day 4, 25 mg/mL BSA only, no MIT (100 ppm MIT row)): 1.36 | Sarcosine Oxidase Enzyme Absorbance, MEAN of 7-11 (Day 4, 50 mg/mL BSA only, no MIT (50 ppm MIT row)): 1.47 | Sarcosine Oxidase Enzyme Absorbance, MEAN of 7-11 (Day 4, 50 mg/mL BSA only, no MIT (100 ppm MIT row)): 1.36 | % Bias (Day 4, 50 ppm MIT vs no MIT, 5 mg/mL BSA): 1.4% | % Bias (Day 4, 50 ppm MIT vs no MIT, 25 mg/mL BSA): 3.0% | % Bias (Day 4, 50 ppm MIT vs no MIT, 50 mg/mL BSA): −7.2% | Sarcosine Oxidase Enzyme Absorbance, MEAN of 1-5 (Day 4, 50 ppm MIT, 5 mg/mL BSA): 1.43 | Sarcosine Oxidase Enzyme Absorbance, solutions 1-5 (Day 4, 50 ppm MIT, 5 mg/mL BSA): 1.47 and 1.446 and 1.456 and 1.467 | Sarcosine Oxidase Enzyme Absorbance, MEAN of 1-5 [11]: 1.41 | Sarcosine Oxidase Enzyme Absorbance, MEAN of 1-5 [12]: 1.37 | % Bias (Day 4, 100 ppm MIT vs no MIT, 5 mg/mL BSA): 1.5% | % Bias (Day 4, 100 ppm MIT vs no MIT, 25 mg/mL BSA): 1.0% | % Bias (Day 4, 100 ppm MIT vs no MIT, 50 mg/mL BSA): 1.0% | Sarcosine Oxidase Enzyme Absorbance, MEAN of 1-5 [13]: 1.38 | Sarcosine Oxidase Enzyme Absorbance, solutions 1-5 [13]: 1.404 and 1.416 and 1.435 and 1.42 | Sarcosine Oxidase Enzyme Absorbance, MEAN of 1-5 [14]: 1.37 | Sarcosine Oxidase Enzyme Absorbance, MEAN of 1-5 [15]: 1.38 | Sarcosine Oxidase Enzyme Absorbance, MEAN of 7-11 (Day 14, 5 mg/mL BSA only, no MIT (50 ppm MIT row)): 1.39 | Sarcosine Oxidase Enzyme Absorbance, MEAN of 7-11 (Day 14, 5 mg/mL BSA only, no MIT (100 ppm MIT row)): 1.42 | Sarcosine Oxidase Enzyme Absorbance, MEAN of 7-11 (Day 14, 25 mg/mL BSA only, no MIT (50 ppm MIT row)): 1.38 | Sarcosine Oxidase Enzyme Absorbance, MEAN of 7-11 (Day 14, 25 mg/mL BSA only, no MIT (100 ppm MIT row)): 1.40 | Sarcosine Oxidase Enzyme Absorbance, MEAN of 7-11 (Day 14, 50 mg/mL BSA only, no MIT (50 ppm MIT row)): 1.37 | Sarcosine Oxidase Enzyme Absorbance, MEAN of 7-11 (Day 14, 50 mg/mL BSA only, no MIT (100 ppm MIT row)): 1.44 | % Bias (Day 14, 50 ppm MIT vs no MIT, 5 mg/mL BSA): −1.0% | % Bias (Day 14, 50 ppm MIT vs no MIT, 25 mg/mL BSA): −0.2% | % Bias (Day 14, 50 ppm MIT vs no MIT, 50 mg/mL BSA): 1.5% | Sarcosine Oxidase Enzyme Absorbance, MEAN of 1-5 [16]: 1.37 | Sarcosine Oxidase Enzyme Absorbance, MEAN of 1-5 [17]: 1.38 | Sarcosine Oxidase Enzyme Absorbance, solutions 1-5 [17]: 1.413 and 1.41 and 1.422 and 1.427 | Sarcosine Oxidase Enzyme Absorbance, MEAN of 1-5 [18]: 1.39 | % Bias (Day 14, 100 ppm MIT vs no MIT, 5 mg/mL BSA): 0.3% | % Bias (Day 14, 100 ppm MIT vs no MIT, 25 mg/mL BSA): −0.2% | % Bias (Day 14, 100 ppm MIT vs no MIT, 50 mg/mL BSA): −0.8% | Sarcosine Oxidase Enzyme Absorbance, MEAN of 1-5 [19]: 1.43 | Sarcosine Oxidase Enzyme Absorbance, MEAN of 1-5 [20]: 1.40 | Sarcosine Oxidase Enzyme Absorbance, MEAN of 1-5 [21]: 1.43 | absorbance of the sarcosine oxidase enzyme compared to samples containing 0 mg/mL of BSA (days 4 and 14, 5, 25 and 50 mg/mL BSA, with MIT): increased absorbance | sarcosine oxidase absorbance, solutions 7-11 (days 4 and 14, only BSA, no MIT): increased (or at least maintained)
Substance: bovine serum albumin [BSA]
Sarcosine Oxidase Enzyme Absorbance, solutions 1-5 (Day 0, 50 ppm MIT, 5 mg/mL BSA): 1.484 and 1.435 and 1.486 and 1.455 and 1.454 | Sarcosine Oxidase Enzyme Absorbance, solutions 1-5 [6]: 1.385 and 1.39 and 1.401 and 1.423 and 1.433 | Sarcosine Oxidase Enzyme Absorbance, solutions 1-5 [7]: 1.445 and 1.468 and 1.458 and 1.406 and 1.484 | Sarcosine Oxidase Enzyme Absorbance, solutions 1-5 [8]: 1.41 and 1.418 and 1.423 and 1.42 and 1.425 | Sarcosine Oxidase Enzyme Absorbance, solutions 1-5 [9]: 1.447 and 1.459 and 1.456 and 1.449 and 1.468 | Sarcosine Oxidase Enzyme Absorbance, solutions 1-5 [10]: 1.396 and 1.419 and 1.45 and 1.414 and 1.413 | Sarcosine Oxidase Enzyme Absorbance, solutions 1-5 [11]: 1.446 and 1.431 and 1.432 and 1.448 and 1.434 | Sarcosine Oxidase Enzyme Absorbance, solutions 1-5 [12]: 1.429 and 1.415 and 1.37 and 1.398 and 1.381 | Sarcosine Oxidase Enzyme Absorbance, solutions 1-5 [14]: 1.42 and 1.392 and 1.415 and 1.383 and 1.4 | Sarcosine Oxidase Enzyme Absorbance, solutions 1-5 [15]: 1.397 and 1.396 and 1.413 and 1.425 and 1.412 | Sarcosine Oxidase Enzyme Absorbance, solutions 1-5 [16]: 1.413 and 1.372 and 1.41 and 1.423 and 1.437 | Sarcosine Oxidase Enzyme Absorbance, solutions 1-5 [18]: 1.434 and 1.444 and 1.427 and 1.431 and 1.432 | Sarcosine Oxidase Enzyme Absorbance, solutions 1-5 [19]: 1.479 and 1.506 and 1.389 and 1.39 and 1.577 | Sarcosine Oxidase Enzyme Absorbance, solutions 1-5 [20]: 1.422 and 1.404 and 1.428 and 1.458 and 1.477 | Sarcosine Oxidase Enzyme Absorbance, solutions 1-5 [21]: 1.442 and 1.477 and 1.456 and 1.492 and 1.478
